Test: Clinical laboratory findings: haematology; data mean (standard deviation)
Format: in vivo, healthy men
Text: Data are mean (standard deviation).

C[C@@H](N)c1cc(Cl)ccc1Cn1c(=S)[nH]c(=O)c2[nH]ccc21 [AZD4831]
Basophils (45 mg fed, 24 h): 0.03 (0.01) 10^9 L^–1 | Eosinophils (45 mg fed, 24 h): 0.19 (0.10) 10^9 L^–1 | Erythrocyte MCH (45 mg fed, 24 h): 30.2 (2.0) pg | Erythrocyte MCH concentration (45 mg fed, 24 h): 343 (14) g L^–1 | Erythrocyte MCV (45 mg fed, 24 h): 88.0 (5.6) fL | Erythrocytes (45 mg fed, 24 h): 4.74 (0.15) 10^12 L^–1 | Haematocrit (45 mg fed, 24 h): 0.42 (0.03) ratio | Haemoglobin (45 mg fed, 24 h): 143 (9) g L^–1 | Leukocytes (45 mg fed, 24 h): 5.51 (0.85) 10^9 L^–1 | Lymphocytes (45 mg fed, 24 h): 1.76 (0.61) 10^9 L^–1 | Monocytes (45 mg fed, 24 h): 0.34 (0.16) 10^9 L^–1 | Neutrophils (45 mg fed, 24 h): 3.11 (0.79) 10^9 L^–1 | Platelets (45 mg fed, 24 h): 227 (50) 10^9 L^–1 | Reticulocytes (45 mg fed, 24 h): 77.4 (5.4) 10^9 L^–1 | Basophils (45 mg fed, 48 h): 0.03 (0.02) 10^9 L^–1 | Eosinophils (45 mg fed, 48 h): 0.20 (0.15) 10^9 L^–1 | Erythrocyte MCH (45 mg fed, 48 h): 30.2 (1.7) pg | Erythrocyte MCH concentration (45 mg fed, 48 h): 343 (8) g L^–1 | Erythrocyte MCV (45 mg fed, 48 h): 88.2 (5.8) fL | Erythrocytes (45 mg fed, 48 h): 4.89 (0.11) 10^12 L^–1 | Haematocrit (45 mg fed, 48 h): 0.43 (0.03) ratio | Haemoglobin (45 mg fed, 48 h): 148 (9) g L^–1 | Leukocytes (45 mg fed, 48 h): 5.93 (1.07) 10^9 L^–1 | Lymphocytes (45 mg fed, 48 h): 1.85 (0.77) 10^9 L^–1 | Monocytes (45 mg fed, 48 h): 0.40 (0.16) 10^9 L^–1 | Neutrophils (45 mg fed, 48 h): 3.35 (1.20) 10^9 L^–1 | Platelets (45 mg fed, 48 h): 233 (51) 10^9 L^–1 | Reticulocytes (45 mg fed, 48 h): 84.5 (7.9) 10^9 L^–1 | Basophils (45 mg fed, follow up): 0.04 (0.01) 10^9 L^–1 | Eosinophils (45 mg fed, follow up): 0.18 (0.12) 10^9 L^–1 | Erythrocyte MCH (45 mg fed, follow up): 30.7 (1.0) pg | Erythrocyte MCH concentration (45 mg fed, follow up): 347 (11) g L^–1 | Erythrocyte MCV (45 mg fed, follow up): 88.3 (5.1) fL | Erythrocytes (45 mg fed, follow up): 4.72 (0.16) 10^12 L^–1 | Haematocrit (45 mg fed, follow up): 0.42 (0.04) ratio | Haemoglobin (45 mg fed, follow up): 145 (9) g L^–1 | Leukocytes (45 mg fed, follow up): 6.37 (1.60) 10^9 L^–1 | Lymphocytes (45 mg fed, follow up): 1.79 (0.37) 10^9 L^–1 | Monocytes (45 mg fed, follow up): 0.39 (0.12) 10^9 L^–1 | Neutrophils (45 mg fed, follow up): 3.85 (1.22) 10^9 L^–1 | Platelets (45 mg fed, follow up): 250 (62) 10^9 L^–1 | Reticulocytes (45 mg fed, follow up): 82.9 (10.8) 10^9 L^–1 | Basophils (135 mg fasted, 24 h): 0.02 (0.01) 10^9 L^–1 | Eosinophils (135 mg fasted, 24 h): 0.11 (0.07) 10^9 L^–1 | Erythrocyte MCH (135 mg fasted, 24 h): 31.0 (0.4) pg | Erythrocyte MCH concentration (135 mg fasted, 24 h): 354 (5) g L^–1 | Erythrocyte MCV (135 mg fasted, 24 h): 87.5 (1.9) fL | Erythrocytes (135 mg fasted, 24 h): 4.69 (0.26) 10^12 L^–1 | Haematocrit (135 mg fasted, 24 h): 0.41 (0.02) ratio | Haemoglobin (135 mg fasted, 24 h): 145 (8) g L^–1 | Leukocytes (135 mg fasted, 24 h): 5.11 (1.13) 10^9 L^–1 | Lymphocytes (135 mg fasted, 24 h): 1.52 (0.40) 10^9 L^–1 | Monocytes (135 mg fasted, 24 h): 0.35 (0.12) 10^9 L^–1 | Neutrophils (135 mg fasted, 24 h): 3.00 (0.79) 10^9 L^–1 | Platelets (135 mg fasted, 24 h): 200 (25) 10^9 L^–1 | Reticulocytes (135 mg fasted, 24 h): 72.4 (19.9) 10^9 L^–1 | Basophils (135 mg fasted, 48 h): 0.03 (0.01) 10^9 L^–1 | Eosinophils (135 mg fasted, 48 h): 0.12 (0.07) 10^9 L^–1 | Erythrocyte MCH (135 mg fasted, 48 h): 30.9 (0.4) pg | Erythrocyte MCH concentration (135 mg fasted, 48 h): 353 (7) g L^–1 | Erythrocyte MCV (135 mg fasted, 48 h): 87.4 (1.6) fL | Erythrocytes (135 mg fasted, 48 h): 4.68 (0.30) 10^12 L^–1 | Haematocrit (135 mg fasted, 48 h): 0.41 (0.03) ratio | Haemoglobin (135 mg fasted, 48 h): 144 (9) g L^–1 | Leukocytes (135 mg fasted, 48 h): 5.28 (1.23) 10^9 L^–1 | Lymphocytes (135 mg fasted, 48 h): 1.66 (0.47) 10^9 L^–1 | Monocytes (135 mg fasted, 48 h): 0.37 (0.11) 10^9 L^–1 | Neutrophils (135 mg fasted, 48 h): 3.00 (0.83) 10^9 L^–1 | Platelets (135 mg fasted, 48 h): 202 (29) 10^9 L^–1 | Reticulocytes (135 mg fasted, 48 h): 70.1 (15.1) 10^9 L^–1 | Basophils (135 mg fasted, follow up): 0.03 (0.01) 10^9 L^–1 | Eosinophils (135 mg fasted, follow up): 0.14 (0.09) 10^9 L^–1 | Erythrocyte MCH (135 mg fasted, follow up): 30.8 (0.5) pg | Erythrocyte MCH concentration (135 mg fasted, follow up): 350 (11) g L^–1 | Erythrocyte MCV (135 mg fasted, follow up): 88.2 (1.7) fL | Erythrocytes (135 mg fasted, follow up): 4.62 (0.25) 10^12 L^–1 | Haematocrit (135 mg fasted, follow up): 0.41 (0.02) ratio | Haemoglobin (135 mg fasted, follow up): 143 (9) g L^–1 | Leukocytes (135 mg fasted, follow up): 6.80 (3.32) 10^9 L^–1 | Lymphocytes (135 mg fasted, follow up): 1.51 (0.26) 10^9 L^–1 | Monocytes (135 mg fasted, follow up): 0.48 (0.32) 10^9 L^–1 | Neutrophils (135 mg fasted, follow up): 4.46 (2.99) 10^9 L^–1 | Platelets (135 mg fasted, follow up): 218 (24) 10^9 L^–1 | Reticulocytes (135 mg fasted, follow up): 82.8 (19.3) 10^9 L^–1 | Basophils (405 mg fasted, 24 h): 0.04 (0.01) 10^9 L^–1 | Eosinophils (405 mg fasted, 24 h): 0.18 (0.15) 10^9 L^–1 | Erythrocyte MCH (405 mg fasted, 24 h): 30.8 (1.5) pg | Erythrocyte MCH concentration (405 mg fasted, 24 h): 345 (8) g L^–1 | Erythrocyte MCV (405 mg fasted, 24 h): 89.4 (3.8) fL | Erythrocytes (405 mg fasted, 24 h): 4.81 (0.31) 10^12 L^–1 | Haematocrit (405 mg fasted, 24 h): 0.43 (0.01) ratio | Haemoglobin (405 mg fasted, 24 h): 148 (6) g L^–1 | Leukocytes (405 mg fasted, 24 h): 5.53 (1.12) 10^9 L^–1 | Lymphocytes (405 mg fasted, 24 h): 1.40 (0.19) 10^9 L^–1 | Monocytes (405 mg fasted, 24 h): 0.34 (0.09) 10^9 L^–1 | Neutrophils (405 mg fasted, 24 h): 3.47 (0.79) 10^9 L^–1 | Platelets (405 mg fasted, 24 h): 190 (23) 10^9 L^–1 | Reticulocytes (405 mg fasted, 24 h): 68.5 (16.4) 10^9 L^–1 | Basophils (405 mg fasted, 48 h): 0.03 (0.01) 10^9 L^–1 | Eosinophils (405 mg fasted, 48 h): 0.24 (0.26) 10^9 L^–1 | Erythrocyte MCH (405 mg fasted, 48 h): 31.0 (1.6) pg | Erythrocyte MCH concentration (405 mg fasted, 48 h): 347 (7) g L^–1 | Erythrocyte MCV (405 mg fasted, 48 h): 89.4 (3.7) fL | Erythrocytes (405 mg fasted, 48 h): 4.67 (0.22) 10^12 L^–1 | Haematocrit (405 mg fasted, 48 h): 0.42 (0.01) ratio | Haemoglobin (405 mg fasted, 48 h): 145 (5) g L^–1 | Leukocytes (405 mg fasted, 48 h): 5.53 (1.14) 10^9 L^–1 | Lymphocytes (405 mg fasted, 48 h): 1.51 (0.30) 10^9 L^–1 | Monocytes (405 mg fasted, 48 h): 0.40 (0.14) 10^9 L^–1 | Neutrophils (405 mg fasted, 48 h): 3.22 (0.62) 10^9 L^–1 | Platelets (405 mg fasted, 48 h): 187 (20) 10^9 L^–1 | Reticulocytes (405 mg fasted, 48 h): 66.3 (20.0) 10^9 L^–1 | Basophils (405 mg fasted, follow up): 0.04 (0.01) 10^9 L^–1 | Eosinophils (405 mg fasted, follow up): 0.27 (0.27) 10^9 L^–1 | Erythrocyte MCH (405 mg fasted, follow up): 31.0 (1.1) pg | Erythrocyte MCH concentration (405 mg fasted, follow up): 345 (5) g L^–1 | Erythrocyte MCV (405 mg fasted, follow up): 89.8 (3.6) fL | Erythrocytes (405 mg fasted, follow up): 4.83 (0.35) 10^12 L^–1 | Haematocrit (405 mg fasted, follow up): 0.43 (0.02) ratio | Haemoglobin (405 mg fasted, follow up): 149 (8) g L^–1 | Leukocytes (405 mg fasted, follow up): 5.84 (1.41) 10^9 L^–1 | Lymphocytes (405 mg fasted, follow up): 1.43 (0.19) 10^9 L^–1 | Monocytes (405 mg fasted, follow up): 0.40 (0.08) 10^9 L^–1 | Neutrophils (405 mg fasted, follow up): 3.54 (1.02) 10^9 L^–1 | Platelets (405 mg fasted, follow up): 205 (21) 10^9 L^–1 | Reticulocytes (405 mg fasted, follow up): 78.6 (19.4) 10^9 L^–1
